Measured values from patent publication US10736897B2, “Compounds and methods of use thereof for treatment of cancer” (Araxes Pharma LLC, priority 2017, dated 2020).

Each compound was assayed against T1, KRAS G12C 1-169, his-tagged protein, GDP-loaded (Homo sapiens, UniProt P01116, G12C) (assay: Biochemical assay: covalent modification of KRAS G12C measured by mass spectrometry (RapidFire/TOF or Q-Exactive)). Conditions: Modification Activity; modification percentage from deconvoluted MS peak intensities; compound concentration and incubation time for Table 2 not stated.
T1 construct: KRAS G12C 1-169, his-tagged protein, GDP-loaded; His tag
Assay type: binding
Method: Test compounds are prepared as 10 mM stock solutions in DMSO (Fisher cat # BP-231-100). KRAS G12C 1-169, his-tagged protein, GDP-loaded is diluted to 2 μM or 0.5 μM in buffer (20 mM Hepes, 150 mM NaCl, 1 mM MgCl2). Compounds are tested for activity as follows:
Compounds are diluted to 50× final test concentration in DMSO in 96-well storage plates. Compound stock solutions are vortexed before use and observed carefully for any sign of precipitation. Dilutions are as follow: • For 100 μM final compound concentration, compounds are diluted to 5000 μM (5 μL 10 mM compound stock+5 μL DMSO and mixed well by pipetting. • For 30 μM final compound concentration, compounds are diluted to 1500 μM (3 μL 10 mM compound stock+17 μL DMSO) and mixed well by pipetting. • For 10 μM final compound concentration, compounds are diluted to 500 μM (2 μL 10 mM compound stock+38 μL DMSO) and mixed well by pipetting. 49 μL of the stock protein solution is added to each well of a 96-well PCR plate (Fisher cat #1423027). 1 μl of the diluted 50× compounds are added to appropriate wells in the PCR plate using 12-channel pipettor. Reactions are mixed carefully and thoroughly by pipetting up/down with a 200 μL multi-channel pipettor. The plate is sealed well with aluminum plate seal, and stored in drawer at room temperature for 10 minutes, 30 minutes, 2 hours or 24 hours. 5 μL of 2% formic acid (Fisher cat # A117) in de-ionized H2O is then added to each well followed by mixing with a pipette. The plate is then resealed with aluminum seal and stored on dry ice until analyzed as described below.
The above described assays are analyzed by mass spectrometry according to one of the following two procedures:
The MS instrument is set to positive polarity, 2 GHz resolution, and low mass (1700) mode and allowed to equilibrate for 30 minutes. The instrument is then calibrated, switched to acquisition mode and the appropriate method loaded.
After another 30 minute equilibration time, a blank batch (i.e., buffer) is run to ensure equipment is operating properly. The samples are thawed at 37° C. for 10 minutes, briefly centrifuged, and transfer to the bench top. Wells A1 and H12 are spiked with 1 μL 500 μM internal standard peptide, and the plates centrifuged at 2000×g for 5 minutes. The method is then run and masses of each individual well recorded.
The masses (for which integration data is desired) for each well are pasted into the platemap and exported from the analysis. Masses for the internal standards are exported as well. The data at 50 ppm is extracted for the +19 charge state, and identity of well A1 is assigned using the internal standard spike and integrated. Peak data is exported as a TOF list and the above steps are repeated individually, for the +20, 21, 22, 23, 24, and 25 charge states.
The masses and peak intensities of KRAS G12C protein species are measured using a Dionex RSLCnano system (Thermo Scientific) connected to a Q Exactive Plus mass spectrometer (Thermo Scientific).
[…] of sample is each loaded onto a Aeris™ 3.6 μm WIDEPORE C4 200 Å, LC Column 50×2.1 mm column maintained at 40° C. at a flow rate of 600 μL/min with […] (0.1% formic acid in acetonitrile). The liquid chromatography conditions are 20% solvent B for 1 minute, 20% to 60% solvent B for 1.5 minutes, 60% to 90% solvent for 0.5 minute, 90% solvent B for 0.2 minute, 90% to 20% solvent B for 0.2 minute, and then equilibrated for 1.6 minute before the following sample injection. The flow rate is maintained at 600 μL/min throughout the sample analysis.
The mass spectrometer is operated in profile mode at a resolution of 17500, 5 microscans, using 50 msec max injection time and an AGC target of 1×10^6, and a full mass range from 800-1850 m/z is recorded. The HCD trapping gas is optimized for maximum sensitivity for intact proteins. […]

Structure (SMILES) | Binding %
C=CC(=O)N1C[C@H](C)N(c2c(C#N)cnc3c(F)c(-c4c(C)ccc5cnn(C)c45)c(Cl)cc23)C[C@H]1C [Compound 19, 4-((2S,5R)-4-acryloyl-2,5-dimethylpiperazin-1-yl)-6-chloro-7-(1,6-dimethyl-1H-indazol-7-yl)-8-fluoroquinoline-3-carbonitrile] | + (+ indicates binding activity greater than 0% and up to 50%)
C=CC(=O)N1[C@H](C)CN(c2ncnc3c(F)c(-c4c(C)ccc5cnn(C)c45)c(Cl)cc23)C[C@@H]1C (atropisomer, axis not shown) [Compound 10, 1-((2S,6R)-4-((R)-6-chloro-7-(1,6-dimethyl-1H-indazol-7-yl)-8-fluoroquinazolin-4-yl)-2,6-dimethylpiperazin-1-yl)prop-2-en-1-one] | ++ (++ indicates binding activity from 50 to 85%)
C=CC(=O)N1[C@H](C)CN(c2ncnc3c(F)c(-c4c(C)ccc5cnn(C)c45)c(Cl)cc23)C[C@@H]1C (atropisomer, axis not shown) [Compound 9, 1-((2S,6R)-4-((S)-6-chloro-7-(1,6-dimethyl-1H-indazol-7-yl)-8-fluoroquinazolin-4-yl)-2,6-dimethylpiperazin-1-yl)prop-2-en-1-one] | + (+ indicates binding activity greater than 0% and up to 50%)
C=CC(=O)N1CCN(c2c(C#N)cnc3c(F)c(-c4c(C)ccc5cnn(C6CC6)c45)c(Cl)cc23)CC1 [Compound 14, 4-(4-acryloylpiperazin-1-yl)-6-chloro-7-(1-cyclopropyl-6-methyl-1H-indazol-7-yl)-8-fluoroquinoline-3-carbonitrile] | +++ (+++ indicates binding activity greater than 85%)
C=CC(=O)N1CCN(c2c(C#N)cnc3c(F)c(-c4c(C)ccc5cnn(C)c45)c(Cl)cc23)C[C@H]1C [Compound 24, 4-((R)-4-acryloyl-3-methylpiperazin-1-yl)-6-chloro-7-(1,6-dimethyl-1H-indazol-7-yl)-8-fluoroquinoline-3-carbonitrile] | +++ (+++ indicates binding activity greater than 85%)
C=CC(=O)N1CCN(c2cc(C(F)(F)F)nc3c(F)c(-c4c(C)ccc5cnn(C)c45)c(Cl)cc23)CC1 [Compound 23, 1-(4-(6-chlroo-7-(1,6-dimethyl-1H-indazol-7-yl)-8-fluoro-2-(trifluoromethyl)quino-lin-4-yl)piperazin-1-yl)prop-2-en-1-one] | + (+ indicates binding activity greater than 0% and up to 50%)
C=CC(=O)N1CCN(c2cnnc3cc(-c4c(C)ccc5[nH]nc(C6CC6)c45)c(Cl)cc23)CC1 [Compound 18, 1-(4-(6-chloro-7-(3-cyclopropyl-5-methyl-1H-indazol-4-yl)cinnolin-4-yl)piperazin-1-yl)prop-2-en-1-one] | + (+ indicates binding activity greater than 0% and up to 50%)
C=CC(=O)N1CCN(c2cc(C#N)nc3c(F)c(-c4c(C)ccc5cnn(C)c45)c(Cl)cc23)CC1 [Compound 28, 4-(4-acryloylpiperazin-1-yl)-6-chloro-7-(1,6-dimethyl-1H-indazol-7-yl)-8-fluoroquinoline-2-carbonitrile] | +++ (+++ indicates binding activity greater than 85%)
